From patent publication US11414406B2, “Antagonists of the muscarinic acetylcholine receptor M4” (Vanderbilt University, priority 2018, dated 2022)
Like-named read-outs stand apart in the source and are kept apart here.

Legend:
[1] = target: T1, Human M4 (Homo sapiens, UniProt P08173); test: mAChR M4 cell-based functional assay (calcium flux, decrease of EC80 acetylcholine response); settings: for IC50: decrease of response to EC80 acetylcholine
T1 construct: expressed in transfected cells
T1 sequence (P08173 1-479): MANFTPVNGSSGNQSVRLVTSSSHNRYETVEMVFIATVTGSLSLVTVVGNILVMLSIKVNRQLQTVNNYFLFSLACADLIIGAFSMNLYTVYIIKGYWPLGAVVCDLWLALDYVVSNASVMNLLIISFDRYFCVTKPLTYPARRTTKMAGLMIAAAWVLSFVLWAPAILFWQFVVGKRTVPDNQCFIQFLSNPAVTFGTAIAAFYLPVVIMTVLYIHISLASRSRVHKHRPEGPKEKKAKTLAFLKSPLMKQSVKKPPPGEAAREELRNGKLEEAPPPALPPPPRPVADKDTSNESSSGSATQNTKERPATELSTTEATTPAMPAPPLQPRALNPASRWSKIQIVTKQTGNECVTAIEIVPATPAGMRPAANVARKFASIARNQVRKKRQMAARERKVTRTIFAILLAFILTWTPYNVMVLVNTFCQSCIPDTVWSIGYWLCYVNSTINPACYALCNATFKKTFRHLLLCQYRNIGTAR
Method: Human M4 cDNA, along with the chimeric G protein Gqi5, were transfected into Chinese hamster ovary (CHO-K1) cells purchased from the American Type Culture Collection using Lipofectamine2000. M4/Gqi5/CHO cells were grown in Ham's F-12 medium containing 10% heat-inactivated fetal bovine serum (FBS), 20 mM HEPES, 500 μg/mL G418 sulfate, and 200 μg/mL Hygromycin B.
For high throughput measurement of agonist-evoked increases in intracellular calcium, CHO-K1 cells stably expressing muscarinic receptors were plated in growth medium lacking G418 and hygromycin at 15,000 cells/20 μL/well in Greiner 384-well black-walled, tissue culture (TC)-treated, clear-bottom plates (VWR). Cells were incubated overnight at 37° C. and 5% CO2. The next day, cells were washed using an ELX 405 (BioTek) with assay buffer; the final volume was then aspirated to 20 μL. Next, 20 μL of a 2.3 μM stock of Fluo-4/acetoxymethyl ester (Invitrogen, Carlsbad, Calif.), prepared as a 2.3 mM stock in DMSO and mixed in a 1:1 ratio with 10% (w/v) Pluronic F-127 and diluted in assay buffer, was added to the wells and the cell plates were incubated for 50 min at 37° C. and 5% CO2. Dye was removed by washing with the ELX 405 and the final volume was aspirated to 20 μL. Compound master plates were formatted in a 10 point concentration-response curve (CRC) format (1:3 dilutions) in 100% DMSO with a starting concentration of 10 or 1 mM using a BRAVO liquid handler (Agilent). Test compound CRCs were then transferred to daughter plates (240 nL) using the Echo acoustic plate reformatter (Labcyte, Sunnyvale, Calif.) and then diluted into assay buffer (40 μL) to a 2× stock using a Thermo Fisher Combi (Thermo Fisher Scientific, Waltham, Mass.).
Calcium flux was measured using the Functional Drug Screening System (FDSS) 6000 or 7000 (Hamamatsu Corporation, Tokyo, Japan) as an increase in the fluorescent static ratio. Compounds were applied to cells (20 μL, 2×) using the automated system of the FDSS at 2 seconds into the protocol and the data were collected at 1 Hz. At 143 s, 10 μL of an EC20 concentration of the muscarinic receptor agonist acetylcholine was added (5×), followed by the addition of 12 μL of an EC80 concentration of acetylcholine at the 268 s time point (5×). Agonist activity was analyzed as a concentration-dependent increase in calcium mobilization upon compound addition. Positive allosteric modulator activity was analyzed as a concentration-dependent increase in the EC20 acetylcholine response. Antagonist activity was analyzed as a concentration-dependent decrease in the EC80 acetylcholine response; for the purposes of the tables herein, an IC50 (inhibitory concentration 50) was calculated as a concentration-dependent decrease of the response elicited by an EC80 concentration of acetylcholine. Concentration-response curves were generated using a four-parameter logistical equation in XLFit curve fitting software (HMS, Bridgewater, N.J.) for Excel (Microsoft, Redmond, Wash.) or Prism (GraphPad Software, Inc., San Diego, Calif.) or the Dotmatics software platform (Dotmatics, Bishop's Stortford, UK).
Compounds were synthesized as described above. Activity (IC50 and Emin) was determined in the inAChR M4 cell-based functional assay as described above and the data are shown in Table 2. The compound numbers correspond to the compound numbers used in Examples 1 and 2 and Tables 1 and 2.

[2] = system: catalepsy induced by the DA receptor antagonist haloperidol; test: haloperidol-induced catalepsy in mice; type: in vivo
From the text: Furthermore, haloperidol-induced catalepsy, a model of parkinsonian motor disability, is reduced in M4 knockout mice as compared to wild-type controls. […] The reversal by scopolamine was uncommonly robust and more pronounced than we observe with agents targeting a number of other targets being evaluated for potential antiparkinsonian effects, including metabotropic glutamate (mGlu) receptors mGlu4 or mGlu5, A2A adenosine receptors, and NMDA receptors. […] Taken together with the extensive studies of M4 modulation of basal ganglia and motor function, these studies provide compelling evidence that M4 is the dominant mAChR subtype involved in the antiparkinsonian effects of non-selective mAChR antagonists and provide support for discovery and development of selective M4 antagonists for treatment of neurodegenerative disease such as PD, dystonia, tardive dyskinesia and other movement disorders.

[3] = M4/Gqi5/CHO-K1 cells, % ACh maximum at 30 μM, read-out: Emin (% ACh maximum at 30 μM)

| remaining activity at 30 µM [1, 3] | IC50 ([1]; M4/Gqi5/CHO-K1 cells) | SMILES | also measured |
| --- | --- | --- | --- |
| 30% | 1660 nM | Fc1ccc(CN2C[C@@H]3[C@H](C2)[C@H]3Nc2ccc(-c3cc(F)ccc3Cl)nn2)cc1 [Compound 23, (1R,5S,6s)-N-[6-(2-chloro-5-fluoro-phenyl)pyridazin-3-yl]-3-[(4-fluorophenyl)methyl]-3-azabicyclo[3.1.0]hexan-6-amine] |  |
| 6% | 889 nM | Fc1ccc(Cl)c(-c2ccc(N[C@H]3[C@@H]4CN(Cc5ccc6c(c5)OCO6)C[C@@H]43)nn2)c1 [Compound 25, (1R,5S,6s)-3-(1,3-benzodioxol-5-ylmethyl)-N-[6-(2-chloro-5-fluoro-phenyl)pyridazin-3-yl]-3-azabicyclo[3.1.0]hexan-6-amine] |  |
| 46% |  | Fc1ccc(F)c(-c2ccc(N[C@H]3[C@@H]4CN(Cc5ccccn5)C[C@@H]43)nn2)c1 [Compound 34, (1R,5S,6s)-N-[6-(2,5-difluorophenyl)pyridazin-3-yl]-3-(2-pyridylmethyl)-3-azabicyclo[3.1.0]hexan-6-amine] |  |

The next lines start with the molecule.

| SMILES | remaining activity at 30 µM [1, 3] | IC50 ([1]; M4/Gqi5/CHO-K1 cells) | also measured |
| --- | --- | --- | --- |
| CC(=O)Nc1ccc(-c2ccc(N[C@H]3[C@@H]4CN(CC5CCOCC5)C[C@@H]43)nn2)cc1 [Compound 19, N-[4-[6-[[(1R,5S,6s)-3-(tetrahydropyran-4-ylmethyl)-3-azabicyclo[3.1.0]hexan-6-yl]amino]pyridazin-3-yl]phenyl]acetamide] | 39% |  |  |
| Cc1nn(C)cc1-c1ccc(N[C@H]2[C@@H]3CN(CCC(C)(C)C)C[C@@H]32)nn1 [Compound 1, (1R,5S,6s)-3-(3,3-dimethylbutyl)-N-[6-(1,3-dimethylpyrazol-4-yl)pyridazin-3-yl]-3-azabicyclo[3.1.0]hexan-6-amine] |  | 280 nM | remaining activity at 30 µM ([1]; CHO-K1, read-out: Emin (% ACh maximum at 30 μM)): 4.8% |
| Cn1cc2cc(-c3ccc(N[C@H]4[C@@H]5CN(CCC(C)(C)C)C[C@@H]54)nn3)ccc2n1 [Compound 39, (1R,5S,6s)-3-(3,3-dimethylbutyl)-N-[6-(2-methylindazol-5-yl)pyridazin-3-yl]-3-azabicyclo[3.1.0]hexan-6-amine] | 5% | 139 nM |  |
| CN1[C@@H]2C[C@@H](OC(=O)[C@H](CO)c3ccccc3)C[C@H]1[C@@H]1O[C@@H]12 [scopolamine] |  |  | reduction of haloperidol-induced catalepsy ([2]; M4 KO mice): ineffective; reversal of haloperidol-induced catalepsy ([2]; WT mice): completely reversed |
| Cc1nn(C)cc1-c1ccc(CN[C@H]2[C@@H]3CN(CC4CCCCC4)C[C@@H]32)nn1 [Compound 7, (1R,5S,6s)-3-(cyclohexylmethyl)-N-((6-(1,3-dimethylpyrazol-4-yl)pyridazin-3-yl)methyl)-3-azabicyclo[3.1.0]hexan-6-amine] | 32.5% |  |  |
